Results on 1 molecule are retold here after BindingDB's records for doi:10.1021/bi701378g (Pfizer, 2007).

Details in all cases: pH 7.4; 30 °C
The target of experiment [1] is T1, Fatty-acid amide hydrolase 1 (Homo sapiens, UniProt O00519).
T1 sequence (O00519 whole entry): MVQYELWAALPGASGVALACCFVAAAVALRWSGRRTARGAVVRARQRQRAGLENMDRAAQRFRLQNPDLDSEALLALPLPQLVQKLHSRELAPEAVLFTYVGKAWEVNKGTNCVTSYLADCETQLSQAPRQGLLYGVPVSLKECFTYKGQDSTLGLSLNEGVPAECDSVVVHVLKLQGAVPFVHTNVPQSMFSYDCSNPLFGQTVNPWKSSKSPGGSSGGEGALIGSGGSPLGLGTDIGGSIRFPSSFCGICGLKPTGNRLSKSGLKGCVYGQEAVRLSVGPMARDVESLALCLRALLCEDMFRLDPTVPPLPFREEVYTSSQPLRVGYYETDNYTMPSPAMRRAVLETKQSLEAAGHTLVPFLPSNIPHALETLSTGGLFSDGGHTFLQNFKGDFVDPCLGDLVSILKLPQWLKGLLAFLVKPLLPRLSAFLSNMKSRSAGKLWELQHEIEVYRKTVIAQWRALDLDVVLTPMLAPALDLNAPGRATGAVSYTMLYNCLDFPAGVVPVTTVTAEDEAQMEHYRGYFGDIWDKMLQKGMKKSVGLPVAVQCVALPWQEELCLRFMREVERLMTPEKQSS
Briefly: FAAH Inhibition Assay (60 min Preincubation). As for the experimental part: (§1) FAAH activity was measured by following the production of ammonia generated from the hydrolysis of oleamide by FAAH. GDH catalyzes the condensation of ammonia and alpha-ketoglutarate to glutamate with a concomitant conversion of NADH to nicotinamide adenine dinucleotide, oxidized form (NAD+), which is spectrophotometrically measured at 340 nm. Test compounds were preincubated with FAAH at room temperature for 60 min. The reaction was initiated with the addition of substrate oleamide. The absorbance at 340 nm was collected over a period of 30 min with reading taken in 10-s intervals using a spectrophotometer.

In experiment [2] the target is T1, Fatty-acid amide hydrolase 1. Briefly: FAAH Inhibition Assay (5 min Preincubation). As for the experimental part:
as §1, with “5” for “60”

Experiment [3] has the same target. Briefly: FAAH Inhibition Assay (30 min Preincubation). The procedure: as §1, with “30” for “60”
Experiment [4] shares this target. Briefly: FAAH Inhibition Assay (15 min Preincubation). The procedure:
as §1, with “15” for “60”

Turning to `O=C(Nc1ccccc1)N1CCN(Cc2ccc3ccccc3n2)CC1` [N-phenyl-4-(quinolin-2-ylmethyl)piperazine-1-carboxamide], the IC50 (in general, the concentration that inhibits the measured activity by half) in experiment [1] amounted to 0.033 µM; in experiment [2], 0.991 µM; in experiment [3], 0.473 µM; in experiment [4], 0.687 µM.
